Assay results reported in PubChem BioAssay (NCI).
Where “and” joins values, the source holds several entries; their conditions need not be identical. Equal values may be shown once.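 Tested at 5 concentrations; 48 h exposure; 96-well plates; endpoints linearly interpolated, else capped at highest concentration. At the GI50, growth is halved. TGI marks complete inhibition of growth.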

Experiments:
Assay in all cases: NCI tumour cell line growth inhibition, 48 h
786-0 renal = system: 786-0 renal
CAKI-1 renal = system: CAKI-1 renal
COLO 205 colon = system: COLO 205 colon
NCI-H226 lung = system: NCI-H226 lung
OVCAR-3 ovarian = system: OVCAR-3 ovarian
OVCAR-4 ovarian = system: OVCAR-4 ovarian
OVCAR-8 ovarian = system: OVCAR-8 ovarian
RPMI-8226 leukemia = system: RPMI-8226 leukemia
SK-MEL-5 melanoma = system: SK-MEL-5 melanoma
TK-10 renal = system: TK-10 renal
MCF7 breast = system: MCF7 breast
NCI/ADR-RES ovarian = system: NCI/ADR-RES ovarian

For `COc1ccc(-c2c(C3=NCCCN3)nnn2-c2ccccc2)cc1`, the TGI (786-0 renal) was over 100 µM, the TGI (CAKI-1 renal) was over 100 µM and the TGI (COLO 205 colon) was over 100 µM. It also gave a TGI (NCI-H226 lung) of over 100 µM, a TGI (OVCAR-3 ovarian) of over 100 µM and a TGI (OVCAR-4 ovarian) of over 100 µM. For the same compound, the TGI (OVCAR-8 ovarian) was over 100 µM, the TGI (RPMI-8226 leukemia) was over 100 µM and the TGI (SK-MEL-5 melanoma) was over 100 µM. It also gave a TGI (TK-10 renal) of over 100 µM.
With `COC1(OC)c2occc2C(=N)c2ccc(=O)oc21` the TGI (786-0 renal) was over 100 µM, the TGI (CAKI-1 renal) was over 100 µM and the TGI (COLO 205 colon) was over 100 µM. For the same compound, the TGI (MCF7 breast) was over 100 µM, the TGI (NCI-H226 lung) was over 100 µM and the TGI (OVCAR-3 ovarian) was over 100 µM. The TGI (OVCAR-4 ovarian) was over 100 µM, the TGI (RPMI-8226 leukemia) was over 100 µM and the TGI (SK-MEL-5 melanoma) was 49.2 µM. The TGI (TK-10 renal) was over 100 µM.
Work on `Cc1[nH]n(-c2nc3c(c(=O)[nH]2)CCCC3)c(=O)c1CCO` yielded a TGI (786-0 renal) of over 100 µM, a TGI (CAKI-1 renal) of over 100 µM and a TGI (COLO 205 colon) of over 100 µM. The TGI (MCF7 breast) was over 100 µM, the TGI (NCI-H226 lung) was over 100 µM and the TGI (NCI/ADR-RES ovarian) was over 100 µM. The TGI (OVCAR-3 ovarian) was over 100 µM, the TGI (OVCAR-4 ovarian) was over 100 µM and the TGI (OVCAR-8 ovarian) was over 100 µM. For the same compound, the TGI (SK-MEL-5 melanoma) was over 100 µM and the TGI (TK-10 renal) was over 100 µM.
`Cn1c(CNc2ccc(-c3n[nH]c(=S)n3C)cc2)n[nH]c1=S` was tested, and the TGI (786-0 renal) was over 100 µM, the TGI (CAKI-1 renal) was over 100 µM and the TGI (COLO 205 colon) was over 100 µM. For the same compound, the TGI (MCF7 breast) was over 100 µM, the TGI (NCI-H226 lung) was over 100 µM and the TGI (NCI/ADR-RES ovarian) was over 100 µM. The TGI (OVCAR-3 ovarian) was over 100 µM, the TGI (OVCAR-4 ovarian) was over 100 µM and the TGI (OVCAR-8 ovarian) was over 100 µM. It also gave a TGI (SK-MEL-5 melanoma) of over 100 µM and a TGI (TK-10 renal) of over 100 µM.
For `CCCCCCCCOCC(COC(=O)CCCCCCC)OC(=O)CCCCCCC` (stereo not drawn), the TGI (786-0 renal) was over 100 µM, the TGI (CAKI-1 renal) was over 100 µM and the TGI (COLO 205 colon) was over 100 µM. For the same compound, the TGI (NCI-H226 lung) was over 100 µM, the TGI (OVCAR-3 ovarian) was over 100 µM and the TGI (OVCAR-4 ovarian) was over 100 µM. For the same compound, the TGI (OVCAR-8 ovarian) was over 100 µM, the TGI (RPMI-8226 leukemia) was over 100 µM and the TGI (SK-MEL-5 melanoma) was over 100 µM. It also gave a TGI (TK-10 renal) of over 100 µM.
Compound `CCOC(=O)/C(=C/c1ccccn1)C(=O)c1ccccc1` has a TGI (786-0 renal) of 25.9 µM, a TGI (CAKI-1 renal) of 27.9 µM and a TGI (COLO 205 colon) of 28.3 µM. For the same compound, the TGI (NCI-H226 lung) was 31.8 µM, the TGI (OVCAR-3 ovarian) was 27.4 µM and the TGI (OVCAR-4 ovarian) was 36.8 µM. For the same compound, the TGI (OVCAR-8 ovarian) was 31.4 µM, the TGI (RPMI-8226 leukemia) was 13.2 µM and the TGI (SK-MEL-5 melanoma) was 28.6 µM. For the same compound, the TGI (TK-10 renal) was 32.3 µM.
`O=C1CC(c2ccc(Cl)cc2)=Nc2ccccc2N1` gave a TGI (786-0 renal) of over 100 µM, a TGI (CAKI-1 renal) of over 100 µM and a TGI (COLO 205 colon) of over 100 µM. It also gave a TGI (NCI-H226 lung) of over 100 µM, a TGI (OVCAR-3 ovarian) of over 100 µM and a TGI (OVCAR-4 ovarian) of over 100 µM. For the same compound, the TGI (OVCAR-8 ovarian) was 76.6 µM, the TGI (SK-MEL-5 melanoma) was over 100 µM and the TGI (TK-10 renal) was over 100 µM.
For `O=S(=O)(/N=C(\NO)Nc1ccc(Cl)cc1)c1cc(C(F)(F)F)cc(C(F)(F)F)c1`, the TGI (786-0 renal) was 33.4 µM, the TGI (CAKI-1 renal) was 32.2 µM and the TGI (COLO 205 colon) was 35.5 µM. The TGI (NCI-H226 lung) was 35.9 µM, the TGI (NCI/ADR-RES ovarian) was 58.1 µM and the TGI (OVCAR-3 ovarian) was 34.8 µM. For the same compound, the TGI (OVCAR-4 ovarian) was 31.6 µM, the TGI (OVCAR-8 ovarian) was 34.5 µM and the TGI (SK-MEL-5 melanoma) was 32.8 µM. It also gave a TGI (TK-10 renal) of 37.6 µM.
With `CSc1nncc(-c2cc3c(c(SC)n2)CCCC3)n1` the TGI (786-0 renal) was over 100 µM, the TGI (CAKI-1 renal) was over 100 µM and the TGI (COLO 205 colon) was over 100 µM. The TGI (NCI-H226 lung) was over 100 µM, the TGI (NCI/ADR-RES ovarian) was over 100 µM and the TGI (OVCAR-3 ovarian) was over 100 µM. It also gave a TGI (OVCAR-4 ovarian) of over 100 µM, a TGI (OVCAR-8 ovarian) of over 100 µM and a TGI (RPMI-8226 leukemia) of over 100 µM. For the same compound, the TGI (SK-MEL-5 melanoma) was over 100 µM and the TGI (TK-10 renal) was over 100 µM.
Work on `CC(C)(CN1CCCCC1)C(=O)/C=C/c1ccc(Br)cc1` yielded a TGI (786-0 renal) of 4.72 µM, a TGI (CAKI-1 renal) of 3.71 µM and a TGI (COLO 205 colon) of 5.56 µM. For the same compound, the TGI (NCI-H226 lung) was 15.7 µM, the TGI (OVCAR-3 ovarian) was 5.51 µM and the TGI (OVCAR-4 ovarian) was 19.3 µM. It also gave a TGI (OVCAR-8 ovarian) of 6.98 µM, a TGI (RPMI-8226 leukemia) of over 27.1 µM and a TGI (SK-MEL-5 melanoma) of 12.6 µM. For the same compound, the TGI (TK-10 renal) was 10.2 µM.
`COc1ccc2ccccc2c1C1=NC(C)(C)CO1` showed a TGI (786-0 renal) of over 100 µM, a TGI (CAKI-1 renal) of over 100 µM and a TGI (COLO 205 colon) of over 100 µM. The TGI (NCI-H226 lung) was over 100 µM, the TGI (OVCAR-3 ovarian) was over 100 µM and the TGI (OVCAR-4 ovarian) was over 100 µM. The TGI (OVCAR-8 ovarian) was over 100 µM, the TGI (RPMI-8226 leukemia) was over 100 µM and the TGI (SK-MEL-5 melanoma) was over 100 µM. For the same compound, the TGI (TK-10 renal) was over 100 µM.
Work on `O=C1CC(c2cccc(Cl)c2)Nc2ccc(N3CCCC3)cc21` (stereo not drawn) yielded a TGI (786-0 renal) of over 100 µM, a TGI (CAKI-1 renal) of over 100 µM and a GI50 (MCF7 breast) of 0.0649 µM. For the same compound, the TGI (MCF7 breast) was over 100 µM, the TGI (NCI-H226 lung) was 0.606 µM and 0.338 µM and the TGI (OVCAR-3 ovarian) was over 100 µM. For the same compound, the GI50 (OVCAR-4 ovarian) was 18.6 µM, the TGI (OVCAR-4 ovarian) was over 100 µM and the TGI (OVCAR-8 ovarian) was 3.85 µM. The TGI (RPMI-8226 leukemia) was 0.0171 µM, the TGI (SK-MEL-5 melanoma) was 0.087 µM and the GI50 (TK-10 renal) was over 100 µM. For the same compound, the TGI (TK-10 renal) was over 100 µM.
`COC(=O)c1c(C)cccc1/C=C1\Cc2ccc(C)c(C)c2C1=O` was tested, and the TGI (786-0 renal) was over 100 µM, the TGI (CAKI-1 renal) was over 100 µM and the TGI (MCF7 breast) was over 100 µM. The TGI (NCI-H226 lung) was over 100 µM, the TGI (OVCAR-3 ovarian) was over 100 µM and the TGI (OVCAR-4 ovarian) was over 100 µM. It also gave a TGI (OVCAR-8 ovarian) of over 100 µM, a TGI (RPMI-8226 leukemia) of over 100 µM and a TGI (SK-MEL-5 melanoma) of over 100 µM. It also gave a TGI (TK-10 renal) of over 100 µM.
With `COC(=O)[C@@]12OC[C@]34C([C@@H](O)C1O)[C@@]1(C)CC(=O)C(OC(=O)CC(C)C(F)(F)F)=C(C)C1C[C@H]3OC(=O)[C@H](O)[C@H]42` (stereo partly drawn) the TGI (786-0 renal) was 38.5 µM, the TGI (CAKI-1 renal) was over 62.5 µM and the TGI (COLO 205 colon) was 30 µM. It also gave a TGI (NCI-H226 lung) of 14.5 µM, a TGI (OVCAR-4 ovarian) of over 62.5 µM and a TGI (OVCAR-8 ovarian) of over 62.5 µM. It also gave a TGI (RPMI-8226 leukemia) of 5.56 µM, a TGI (SK-MEL-5 melanoma) of 22.2 µM and a TGI (TK-10 renal) of over 62.5 µM.
`COC(=O)C(C(=O)C(=O)Nc1c(Cl)cc([N+](=O)[O-])cc1Cl)c1csc(-n2nc(C3=CCCCC3)cc2-c2ccccc2)n1` (stereo not drawn) showed a TGI (786-0 renal) of over 100 µM, a TGI (CAKI-1 renal) of over 100 µM and a TGI (COLO 205 colon) of over 100 µM. The TGI (NCI-H226 lung) was over 100 µM, the TGI (OVCAR-3 ovarian) was over 100 µM and the TGI (OVCAR-4 ovarian) was over 100 µM. It also gave a TGI (OVCAR-8 ovarian) of over 100 µM, a TGI (RPMI-8226 leukemia) of over 100 µM and a TGI (TK-10 renal) of over 100 µM.
`NC1=NC(Cn2nc(-c3ccccc3)c3ccccc3c2=O)=NNC(=O)N1` showed a TGI (786-0 renal) of over 100 µM, a TGI (CAKI-1 renal) of over 100 µM and a TGI (COLO 205 colon) of over 100 µM. For the same compound, the TGI (NCI-H226 lung) was over 100 µM, the TGI (OVCAR-3 ovarian) was over 100 µM and the TGI (OVCAR-4 ovarian) was over 100 µM. For the same compound, the TGI (OVCAR-8 ovarian) was over 100 µM, the TGI (RPMI-8226 leukemia) was over 100 µM and the TGI (SK-MEL-5 melanoma) was over 100 µM. It also gave a TGI (TK-10 renal) of over 100 µM.
